The values below come from ChEMBL document CHEMBL1201862, “PubChem BioAssay data set” (2004).

One assay deals with T1, Bcl-2-like protein 10 (Homo sapiens, UniProt Q9HD36).
T1 sequence (Q9HD36 whole entry): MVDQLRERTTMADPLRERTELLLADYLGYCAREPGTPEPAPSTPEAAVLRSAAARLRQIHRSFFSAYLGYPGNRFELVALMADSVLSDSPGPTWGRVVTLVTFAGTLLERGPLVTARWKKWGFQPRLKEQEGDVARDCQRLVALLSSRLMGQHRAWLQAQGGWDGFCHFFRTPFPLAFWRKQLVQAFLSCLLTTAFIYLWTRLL
In words: Bcl-B/TR3 peptide binding disruption – biochemical, fluorescence polarization, FITC-TR3 peptide, selectivity assay for Bfl-1 inhibitor project, primary screen (AID 748).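 Also: fluorescence polarization from a fluorescein-labelled TR3 peptide binding purified Bcl-B.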 In general terms: In fluorescence polarisation assays a small probe gives low polarisation when free and higher when bound to something large.

For assay [1], the target named is Peroxisome proliferator-activated receptor gamma/Nuclear receptor coactivator 1 (Homo sapiens, UniProt P37231). In words: TR-FRET dose response biochemical High Throughput Screening assay for agonists of the steroid receptor coactivator 1 (SRC-1) recruitment by the peroxisome proliferator-activated receptor gamma (PPAR gamma): non-selective agonists. [Related pubchem assays (depositor defined):AID1300, AID1808, AID504735, AID631]. Format: protein assay. (In general: Time-resolved FRET reads energy transfer from a long-lived donor to a nearby acceptor.)

Assay [2] deals with Peroxisome proliferator-activated receptor gamma/Nuclear receptor coactivator 3 (Homo sapiens, UniProt P37231). In words: TR-FRET dose response biochemical High Throughput Screening assay for agonists of the steroid receptor coactivator 3 (SRC-3) recruitment by the peroxisome proliferator-activated receptor gamma (PPAR gamma): non-selective agonists. [Related pubchem assays: 1301 (Confirmation screen.), 1048 (Primary screen.)]. The assay is classed as functional.

Assay [3] has as its target Peroxisome proliferator-activated receptor gamma/Nuclear receptor coactivator 2 (Homo sapiens, UniProt P37231). In words: TR-FRET dose response biochemical High Throughput Screening assay for agonists of the steroid receptor coactivator 2 (SRC-2) recruitment by the peroxisome proliferator-activated receptor gamma (PPAR gamma): non-selective agonists. [Related pubchem assays: 1297, 1032 ]. The assay is classed as functional.

The nature of assay [4]: decrease of insulin promoter-GFP reporter – imaging, high-content screening, mouse beta cells (AID 1628). The following applies: MIN6. The assay is classed as functional.
Assay [5] can be described thus: MIN6 cell viability loss – mouse insulinoma, cytotoxicity control, dose response (AID 2122).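 Also: confirmatory high-throughput counterscreen run to flag cytotoxic compounds.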 The assay is classed as functional.
Assay [6] in a line: Trypanosoma cruzi growth suppression in host cells – NIH3T3 host cells, beta-gal luminescence, confirmation (AID 2044).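 Also: intracellular parasites grown in NIH/3T3 mouse fibroblasts as host cells; luminescent beta-galactosidase reporter signal from transgenic T. cruzi replicating inside host cells; inhibitors lower the luminescence signal.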 Format: functional, cell-based.
A short description of assay [7]: NIH3T3 cell viability loss – ATP luminescence, mouse fibroblasts, counter-screen, dose response (AID 2010).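 Also: cells exposed to compound for about 90 hours before reading.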 Format: functional, cell-based. (Counterscreens check selectivity or assay interference.)
A short description of assay [8]: Luminescence Cell-Based Dose Retest to Confirm Inhibitors of Cancer Stem Cells. [Related pubchem assays (depositor defined):AID2717, AID2721]. The assay is classed as functional. The following applies: Homo sapiens.
The target in another assay is T2, Bcl-2-related protein A1 (Mus musculus, UniProt Q07440).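 Also: confirmatory dose–response counterscreen on Bfl-1, used to check hits from a UBC13 polyubiquitin inhibitor campaign.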
T2 sequence (Q07440 whole entry): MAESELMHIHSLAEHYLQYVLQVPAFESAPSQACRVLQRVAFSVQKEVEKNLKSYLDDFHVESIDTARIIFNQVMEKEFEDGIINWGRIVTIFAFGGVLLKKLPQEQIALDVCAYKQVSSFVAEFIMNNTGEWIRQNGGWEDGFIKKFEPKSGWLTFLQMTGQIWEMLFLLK
The assay is classed as functional.

The target of assay [9] is T3, Ubiquitin-conjugating enzyme E2 N (Homo sapiens, UniProt P61088).
T3 sequence (P61088 whole entry): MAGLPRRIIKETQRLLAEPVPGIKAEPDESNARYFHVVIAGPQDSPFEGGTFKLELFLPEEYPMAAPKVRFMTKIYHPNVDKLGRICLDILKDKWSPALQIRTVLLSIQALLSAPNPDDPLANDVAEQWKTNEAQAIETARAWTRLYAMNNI
Format: functional.

The target in assay [10] is Neurotensin receptor type 1 (Homo sapiens, UniProt P30989). The assay is classed as functional.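 Also: Image-based confirmatory dose-response assay measuring agonist activity at NTR1; NTR1-expressing U2OS osteosarcoma cells imaged for beta-arrestin GFP spot formation; agonist potency where compounds increase beta-arrestin recruitment.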
Assay [11] deals with T3, Ubiquitin-conjugating enzyme E2 N. Format: functional. This is another data set of the same source.
The target in assay [12] is T4, Heat shock factor protein 1 (Mus musculus, UniProt P38532).
T4 sequence (P38532 whole entry): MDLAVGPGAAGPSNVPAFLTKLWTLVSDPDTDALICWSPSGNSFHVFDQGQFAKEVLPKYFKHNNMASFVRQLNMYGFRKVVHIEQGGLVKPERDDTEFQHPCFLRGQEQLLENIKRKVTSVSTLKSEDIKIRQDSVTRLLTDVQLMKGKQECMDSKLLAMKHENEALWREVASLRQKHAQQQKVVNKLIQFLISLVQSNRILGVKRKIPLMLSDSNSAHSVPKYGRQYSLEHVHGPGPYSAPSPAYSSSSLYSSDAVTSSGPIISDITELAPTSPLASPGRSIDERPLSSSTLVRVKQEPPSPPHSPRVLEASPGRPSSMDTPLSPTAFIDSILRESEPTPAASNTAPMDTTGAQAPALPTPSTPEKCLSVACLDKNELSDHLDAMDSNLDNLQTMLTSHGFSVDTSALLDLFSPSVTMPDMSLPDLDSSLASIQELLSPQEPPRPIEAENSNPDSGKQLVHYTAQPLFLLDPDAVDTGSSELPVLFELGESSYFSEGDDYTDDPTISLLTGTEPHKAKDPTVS
In words: enhancement of HSF1-driven luciferase signal – cell-based, NIH3T3, luminescence, dose retest, confirmation (AID 435004).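 Also: stress induced by proteasome inhibitor MG132 added 30 min after compound; luciferase reporter driven by HSF1 response element in NIH3T3 cells; actives raise luminescence as potentiators of the MG132 stress response.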 Format: functional.

In assay [13] the target is T5, Apoptotic protease-activating factor 1 (Homo sapiens, UniProt O14727).
T5 sequence (O14727 whole entry): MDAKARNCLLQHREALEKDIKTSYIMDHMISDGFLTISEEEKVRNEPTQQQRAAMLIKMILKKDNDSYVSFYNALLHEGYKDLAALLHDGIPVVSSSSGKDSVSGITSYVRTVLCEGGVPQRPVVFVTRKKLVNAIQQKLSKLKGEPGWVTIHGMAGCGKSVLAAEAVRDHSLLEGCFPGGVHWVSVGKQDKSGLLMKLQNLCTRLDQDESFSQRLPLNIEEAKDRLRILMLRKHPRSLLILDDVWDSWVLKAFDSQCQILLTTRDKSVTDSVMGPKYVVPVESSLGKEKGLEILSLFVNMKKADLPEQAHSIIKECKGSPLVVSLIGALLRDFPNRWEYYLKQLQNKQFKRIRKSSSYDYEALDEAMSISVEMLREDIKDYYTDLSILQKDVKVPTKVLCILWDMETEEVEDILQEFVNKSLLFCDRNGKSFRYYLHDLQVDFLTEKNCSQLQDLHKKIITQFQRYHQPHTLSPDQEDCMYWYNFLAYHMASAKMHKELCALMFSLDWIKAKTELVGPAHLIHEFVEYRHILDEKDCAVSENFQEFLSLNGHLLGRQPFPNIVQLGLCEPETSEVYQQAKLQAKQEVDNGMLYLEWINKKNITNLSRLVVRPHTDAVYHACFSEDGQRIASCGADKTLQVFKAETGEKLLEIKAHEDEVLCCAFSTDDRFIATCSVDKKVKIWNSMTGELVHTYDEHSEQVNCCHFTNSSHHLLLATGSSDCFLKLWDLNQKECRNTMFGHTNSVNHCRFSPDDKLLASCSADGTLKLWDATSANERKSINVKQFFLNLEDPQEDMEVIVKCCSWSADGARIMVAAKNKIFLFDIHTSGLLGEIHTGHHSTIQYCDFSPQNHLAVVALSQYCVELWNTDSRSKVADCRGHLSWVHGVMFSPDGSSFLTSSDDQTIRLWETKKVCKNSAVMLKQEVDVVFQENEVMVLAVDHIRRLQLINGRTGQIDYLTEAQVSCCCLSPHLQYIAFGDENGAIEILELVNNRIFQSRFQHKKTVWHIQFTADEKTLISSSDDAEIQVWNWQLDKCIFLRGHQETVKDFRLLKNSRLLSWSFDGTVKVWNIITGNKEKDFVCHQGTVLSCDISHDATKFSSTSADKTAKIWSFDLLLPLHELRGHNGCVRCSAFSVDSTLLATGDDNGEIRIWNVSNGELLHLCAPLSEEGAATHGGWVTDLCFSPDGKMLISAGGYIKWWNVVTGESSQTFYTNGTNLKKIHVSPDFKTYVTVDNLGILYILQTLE
Format: functional.

The next assay deals with Escherichia coli. The assay is described as follows: microbe, parasite or virus in culture.
Assay [14] deals with Streptococcus sp. 'group A'. In words: Streptococcus pyogenes SK(-)GAS viability under kanamycin – luminescence, BacTiterGlo, confirmation, counter-screen for streptokinase expression inhibitor project, dose response (AID 1900). Format: functional, organism-based.
Assay [15] can be described thus: microbe, parasite or virus in culture. The assay is classed as functional. The following applies: Mycobacterium tuberculosis.
For another assay, the system named is Streptococcus. The assay is described as follows: GAS UMAA2166 growth inhibition – luminescence, BacTiterGlo, counter-screen for streptokinase expression inhibitor project, dose response (AID 1915).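 Also: potency for reduction of bacterial viability or growth.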 Format: functional, organism-based.
Assay [16] deals with T4, Heat shock factor protein 1. In words: decrease of HSF1-responsive luciferase luminescence – cell-based, NIH3T3, dose retest, confirmation (AID 2382).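 Also: NIH3T3 fibroblasts with HSF1-driven luciferase reporter stressed by proteasome inhibitor MG132; luminescence from HSF1-driven luciferase expression after 8 hours of MG132 stress.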 Format: functional.
The target of assay [17] is Luciferin 4-monooxygenase (Photinus pyralis, UniProt P08659). The assay is described as follows: Counter Screen for Luciferase-based Assay Positives. [Related pubchem assays: 620, 618, 411 ].
A further assay deals with T6, Estrogen receptor (Homo sapiens, UniProt P03372).
T6 sequence (P03372 whole entry): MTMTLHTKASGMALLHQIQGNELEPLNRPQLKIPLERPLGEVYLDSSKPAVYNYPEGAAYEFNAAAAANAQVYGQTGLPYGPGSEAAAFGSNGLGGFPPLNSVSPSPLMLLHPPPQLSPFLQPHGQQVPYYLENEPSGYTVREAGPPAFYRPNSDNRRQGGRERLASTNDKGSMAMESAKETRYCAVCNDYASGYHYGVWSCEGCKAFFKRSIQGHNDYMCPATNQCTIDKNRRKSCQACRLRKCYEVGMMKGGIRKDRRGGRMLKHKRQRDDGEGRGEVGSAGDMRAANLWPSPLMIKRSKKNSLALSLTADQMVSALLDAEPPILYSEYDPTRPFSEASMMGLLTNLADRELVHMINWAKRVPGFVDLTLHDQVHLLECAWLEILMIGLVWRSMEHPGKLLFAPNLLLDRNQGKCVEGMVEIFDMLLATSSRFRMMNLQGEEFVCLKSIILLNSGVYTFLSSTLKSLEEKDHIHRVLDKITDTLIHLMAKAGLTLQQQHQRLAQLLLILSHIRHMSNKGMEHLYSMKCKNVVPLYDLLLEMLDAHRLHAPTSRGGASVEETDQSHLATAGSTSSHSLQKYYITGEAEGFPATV

Assay [18] has as its target T7, Estrogen receptor beta (Homo sapiens, UniProt Q92731).
Assay [19] deals with T7, Estrogen receptor beta. In words: blockers of SRC-3 recruitment to ERβ – biochemical, ELISA, streptavidin-HRP readout, orthogonal assay, confirmation (AID 1060).
Another assay has as its system HT-1080. In words: HT1080 cell viability loss – fluorescence readout (AID 620). The following applies: Homo sapiens. The assay is classed as functional, cell-based.

Active and inactive are the calls of the source.

Peroxisome proliferator-activated receptor gamma/Nuclear receptor coactivator 3, sequence (P37231 whole entry): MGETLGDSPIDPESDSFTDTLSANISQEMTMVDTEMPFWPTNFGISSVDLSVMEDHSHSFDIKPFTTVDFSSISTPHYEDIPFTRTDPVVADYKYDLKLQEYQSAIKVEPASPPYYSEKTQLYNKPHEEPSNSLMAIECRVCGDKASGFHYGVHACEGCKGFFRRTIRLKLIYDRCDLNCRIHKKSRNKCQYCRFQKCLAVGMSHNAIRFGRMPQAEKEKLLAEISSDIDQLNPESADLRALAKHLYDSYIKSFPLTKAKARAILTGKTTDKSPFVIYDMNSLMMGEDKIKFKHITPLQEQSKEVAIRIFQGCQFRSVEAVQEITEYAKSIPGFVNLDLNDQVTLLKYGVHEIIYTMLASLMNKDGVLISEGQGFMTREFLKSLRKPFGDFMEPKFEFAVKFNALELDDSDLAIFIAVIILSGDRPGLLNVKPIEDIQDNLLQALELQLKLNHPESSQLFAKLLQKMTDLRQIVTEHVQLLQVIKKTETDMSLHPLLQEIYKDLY
Peroxisome proliferator-activated receptor gamma/Nuclear receptor coactivator 3, sequence (Q9Y6Q9 whole entry, further chain): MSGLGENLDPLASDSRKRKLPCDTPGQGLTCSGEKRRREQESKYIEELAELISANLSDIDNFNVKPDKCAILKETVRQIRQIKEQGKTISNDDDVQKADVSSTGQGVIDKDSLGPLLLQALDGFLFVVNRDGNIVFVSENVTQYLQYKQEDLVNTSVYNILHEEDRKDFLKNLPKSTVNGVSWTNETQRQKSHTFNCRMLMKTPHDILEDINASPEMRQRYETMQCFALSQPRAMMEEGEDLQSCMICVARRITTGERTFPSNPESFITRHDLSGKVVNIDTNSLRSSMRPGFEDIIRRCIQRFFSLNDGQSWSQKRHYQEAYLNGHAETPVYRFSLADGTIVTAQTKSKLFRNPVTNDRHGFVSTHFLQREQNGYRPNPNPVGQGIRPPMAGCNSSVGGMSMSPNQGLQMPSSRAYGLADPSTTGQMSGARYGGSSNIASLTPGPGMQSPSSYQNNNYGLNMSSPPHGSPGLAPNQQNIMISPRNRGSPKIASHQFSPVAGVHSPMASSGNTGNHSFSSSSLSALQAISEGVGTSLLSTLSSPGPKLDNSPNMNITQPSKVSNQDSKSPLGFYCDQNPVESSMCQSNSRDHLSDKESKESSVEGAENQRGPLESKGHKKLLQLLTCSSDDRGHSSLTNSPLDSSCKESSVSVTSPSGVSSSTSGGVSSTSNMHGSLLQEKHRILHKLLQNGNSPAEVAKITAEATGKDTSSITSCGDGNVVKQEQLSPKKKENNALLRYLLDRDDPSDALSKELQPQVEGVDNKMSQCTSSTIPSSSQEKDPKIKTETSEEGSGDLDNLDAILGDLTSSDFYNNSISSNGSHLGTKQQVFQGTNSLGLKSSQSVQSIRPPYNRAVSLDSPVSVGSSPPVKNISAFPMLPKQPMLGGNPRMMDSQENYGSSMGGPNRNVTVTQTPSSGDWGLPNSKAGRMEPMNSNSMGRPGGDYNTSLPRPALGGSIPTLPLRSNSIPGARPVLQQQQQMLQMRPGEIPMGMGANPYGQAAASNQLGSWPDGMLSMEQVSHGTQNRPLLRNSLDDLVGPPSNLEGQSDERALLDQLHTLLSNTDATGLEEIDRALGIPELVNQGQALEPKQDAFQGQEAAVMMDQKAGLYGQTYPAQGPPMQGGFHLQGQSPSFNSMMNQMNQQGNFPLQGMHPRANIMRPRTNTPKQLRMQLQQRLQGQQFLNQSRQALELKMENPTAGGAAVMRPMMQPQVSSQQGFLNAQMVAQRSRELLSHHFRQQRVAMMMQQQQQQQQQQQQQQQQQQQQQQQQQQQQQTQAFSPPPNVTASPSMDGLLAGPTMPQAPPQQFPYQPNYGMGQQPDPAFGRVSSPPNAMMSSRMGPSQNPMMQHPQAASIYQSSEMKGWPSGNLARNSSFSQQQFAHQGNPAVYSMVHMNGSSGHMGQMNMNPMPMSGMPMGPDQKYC
Peroxisome proliferator-activated receptor gamma/Nuclear receptor coactivator 2, sequence (P37231 whole entry): as the sequence (P37231 whole entry) above
Peroxisome proliferator-activated receptor gamma/Nuclear receptor coactivator 2, sequence (Q15596 whole entry, further chain): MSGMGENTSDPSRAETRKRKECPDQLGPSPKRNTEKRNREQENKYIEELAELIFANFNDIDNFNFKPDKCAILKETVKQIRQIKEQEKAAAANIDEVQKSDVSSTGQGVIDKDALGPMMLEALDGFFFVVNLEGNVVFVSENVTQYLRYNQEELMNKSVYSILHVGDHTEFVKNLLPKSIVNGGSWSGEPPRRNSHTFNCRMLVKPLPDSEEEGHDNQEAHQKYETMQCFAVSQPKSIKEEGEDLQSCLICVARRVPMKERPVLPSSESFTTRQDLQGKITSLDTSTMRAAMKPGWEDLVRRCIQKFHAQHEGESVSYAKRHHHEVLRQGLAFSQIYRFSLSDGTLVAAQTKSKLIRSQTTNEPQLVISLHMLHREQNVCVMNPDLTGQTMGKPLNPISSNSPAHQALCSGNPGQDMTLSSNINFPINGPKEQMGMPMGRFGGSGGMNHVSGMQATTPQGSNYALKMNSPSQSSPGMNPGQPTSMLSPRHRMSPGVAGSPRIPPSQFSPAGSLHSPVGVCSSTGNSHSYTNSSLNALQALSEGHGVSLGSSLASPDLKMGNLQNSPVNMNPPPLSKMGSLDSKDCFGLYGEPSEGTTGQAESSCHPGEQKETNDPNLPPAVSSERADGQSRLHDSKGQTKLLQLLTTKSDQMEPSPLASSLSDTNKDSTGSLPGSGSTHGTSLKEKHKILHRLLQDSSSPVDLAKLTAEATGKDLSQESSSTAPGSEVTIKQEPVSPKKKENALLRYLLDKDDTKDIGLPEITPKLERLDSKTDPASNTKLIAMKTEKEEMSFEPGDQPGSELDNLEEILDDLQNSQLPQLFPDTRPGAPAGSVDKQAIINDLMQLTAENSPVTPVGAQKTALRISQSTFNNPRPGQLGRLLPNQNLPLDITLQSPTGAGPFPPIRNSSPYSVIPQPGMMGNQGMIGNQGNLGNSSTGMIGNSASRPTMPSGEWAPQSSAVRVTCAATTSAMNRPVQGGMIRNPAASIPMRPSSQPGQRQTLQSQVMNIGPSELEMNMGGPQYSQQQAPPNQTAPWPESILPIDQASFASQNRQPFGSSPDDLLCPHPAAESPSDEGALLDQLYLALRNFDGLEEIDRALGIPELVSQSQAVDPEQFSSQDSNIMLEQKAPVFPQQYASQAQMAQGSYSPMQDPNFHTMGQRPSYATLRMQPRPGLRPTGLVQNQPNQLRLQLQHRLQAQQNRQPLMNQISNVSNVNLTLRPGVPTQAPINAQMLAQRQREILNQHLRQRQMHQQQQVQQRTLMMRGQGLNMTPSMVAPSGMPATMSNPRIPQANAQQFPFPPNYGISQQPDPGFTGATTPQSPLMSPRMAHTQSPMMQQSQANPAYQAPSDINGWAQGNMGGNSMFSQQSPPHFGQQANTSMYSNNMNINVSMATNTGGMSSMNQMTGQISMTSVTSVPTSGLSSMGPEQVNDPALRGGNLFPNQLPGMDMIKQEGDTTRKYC
T7 sequence (Q92731 whole entry): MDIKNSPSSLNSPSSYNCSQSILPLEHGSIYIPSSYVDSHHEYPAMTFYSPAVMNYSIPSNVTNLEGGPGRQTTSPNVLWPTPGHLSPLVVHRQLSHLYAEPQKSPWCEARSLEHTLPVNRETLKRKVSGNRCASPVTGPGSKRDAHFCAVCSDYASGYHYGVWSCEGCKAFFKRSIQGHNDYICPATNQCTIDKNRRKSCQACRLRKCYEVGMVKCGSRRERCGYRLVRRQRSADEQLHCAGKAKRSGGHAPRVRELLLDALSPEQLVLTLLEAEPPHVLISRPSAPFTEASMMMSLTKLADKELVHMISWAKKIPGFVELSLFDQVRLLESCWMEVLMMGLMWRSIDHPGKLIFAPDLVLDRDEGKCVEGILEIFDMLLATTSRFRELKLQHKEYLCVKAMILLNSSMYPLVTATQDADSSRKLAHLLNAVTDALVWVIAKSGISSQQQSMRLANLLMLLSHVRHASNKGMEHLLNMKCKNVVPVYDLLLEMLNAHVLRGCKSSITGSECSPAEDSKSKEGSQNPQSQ
Neurotensin receptor type 1, sequence (P30989 whole entry): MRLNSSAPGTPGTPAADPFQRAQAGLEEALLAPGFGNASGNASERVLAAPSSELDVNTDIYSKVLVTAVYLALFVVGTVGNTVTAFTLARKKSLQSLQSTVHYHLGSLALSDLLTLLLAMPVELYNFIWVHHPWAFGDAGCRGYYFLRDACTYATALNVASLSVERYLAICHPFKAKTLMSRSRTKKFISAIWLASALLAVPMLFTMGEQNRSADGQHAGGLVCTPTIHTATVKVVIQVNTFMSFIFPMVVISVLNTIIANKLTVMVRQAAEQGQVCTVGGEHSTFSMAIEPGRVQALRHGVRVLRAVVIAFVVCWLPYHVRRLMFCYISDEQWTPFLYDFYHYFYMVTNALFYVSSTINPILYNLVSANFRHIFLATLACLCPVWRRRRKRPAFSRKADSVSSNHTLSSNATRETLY

Turning to `C=CCn1c(SCC(=O)OC)nc2sc3c(c2c1=O)CCN(C)C3`, on Bcl-2-like protein 10, the IC50 is 71 µM (inactive).
Regarding `COc1ccc(C2CC(c3ccc(Br)cc3)=NN2C(S)=Nc2ccccc2)cc1` (stereo not drawn), the EC50 in assay [1] is 31.8 µM (inactive); in assay [2] it was > 79.4 µM (not active); in [3] it was 30.2 µM (not active).
Turning to `CCCCCCOc1ccc(/C(C)=N/NC2=NCCN2)cc1[N+](=O)[O-]`, the IC50 in assay [4] is 2.34 µM (active); in [5], 2.11 µM (active); on Bcl-2-related protein A1, > 20 µM (inactive); in assay [9], 12.6 µM (active); in assay [11] it was 12.1 µM (active); in assay [13], 70.5 µM (active). For the same compound, the half-maximal effective concentration (EC50) is 2.15 µM (active) in assay [6], > 30 µM (not active) in assay [7], 18.9 µM (active) in [10] and > 260 µM (inactive) in assay [12]. The AC50 in [8] is 4.9 µM (active).
For the compound `COC(C(=O)Nc1ccnn1C1CCN(Cc2ccc(C)o2)CC1)c1ccccc1` (stereo not drawn), the half-maximal activity concentration (AC50) with Escherichia coli was 74.5 µM (active).
For `C/C(=N/Nc1cc(-c2ccccc2)nc(-c2ccccc2)n1)c1ccc(O)cc1`, the EC50 in [14] was 1.52 µM (active); in the assay with Streptococcus, 1.56 µM (active); in assay [10], 15.9 µM (active). Moreover, the CC50 in [15] is 18.2 µM (active).
Regarding `Cn1c(S)nnc1-c1sc2cc(C(F)(F)F)cnc2c1-c1cccnc1`, the EC50 in [1] was 4.86 µM (active); in assay [2], 20.2 µM (not active); in [16], > 195 µM (not active); in [3], 7.93 µM (active).
Consider `N#Cc1cc(C(=O)c2cc(Br)ccc2O)cn(Cc2ccccc2)c1=O`, for which the EC50 in assay [1] was > 79.4 µM (inactive); in assay [2] it was > 79.4 µM (not active); in assay [3], > 79.4 µM (not active).
Take `CCc1ccc(NC(=O)c2noc3c2CCC3)cc1`: the IC50 at Bcl-2-like protein 10 was 21.7 µM (active); on Estrogen receptor, 7.94 µM (active); at Estrogen receptor beta [18], 5.5 µM (active); against Estrogen receptor beta [19], < 0.023 µM (not active). For the same compound, the EC50 was 1.4 µM (active) in assay [17] and > 50 µM (not active) in the assay on HT-1080.

As usually defined, the IC50 is the midpoint of a concentration-inhibition curve. Usually EC50 stands for the concentration at which the effect is half-maximal. One may read the AC50 as the concentration at which the activity in the assay is half-maximal.
